The target of assay [1] is T1, Serine/threonine-protein kinase 3 (Homo sapiens) (UniProt Q13188).
T1 sequence (whole entry): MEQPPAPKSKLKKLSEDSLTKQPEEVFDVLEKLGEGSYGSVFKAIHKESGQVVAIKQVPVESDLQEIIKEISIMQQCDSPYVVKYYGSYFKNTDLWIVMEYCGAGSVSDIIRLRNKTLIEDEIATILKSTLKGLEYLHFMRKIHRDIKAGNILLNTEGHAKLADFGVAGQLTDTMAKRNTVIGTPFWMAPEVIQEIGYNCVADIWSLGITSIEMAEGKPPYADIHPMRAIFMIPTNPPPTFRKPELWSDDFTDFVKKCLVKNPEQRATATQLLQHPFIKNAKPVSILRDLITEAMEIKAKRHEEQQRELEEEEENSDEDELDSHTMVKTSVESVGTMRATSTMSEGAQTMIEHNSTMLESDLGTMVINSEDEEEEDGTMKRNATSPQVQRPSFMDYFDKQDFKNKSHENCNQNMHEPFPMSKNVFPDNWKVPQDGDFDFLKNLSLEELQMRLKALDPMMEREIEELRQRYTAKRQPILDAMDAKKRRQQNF
The experiment in a line: Inhibition of human full length MST2 expressed in baculovirus assessed as substrate phosphorylation using fluorescence-labelled peptides as substrate at 0.2 uM after 90 mins by microfluidic peptide phosphorylation assay.

The target in assay [2] is T2, Mitogen-activated protein kinase 12 (Homo sapiens) (UniProt P53778).
T2 sequence (whole entry): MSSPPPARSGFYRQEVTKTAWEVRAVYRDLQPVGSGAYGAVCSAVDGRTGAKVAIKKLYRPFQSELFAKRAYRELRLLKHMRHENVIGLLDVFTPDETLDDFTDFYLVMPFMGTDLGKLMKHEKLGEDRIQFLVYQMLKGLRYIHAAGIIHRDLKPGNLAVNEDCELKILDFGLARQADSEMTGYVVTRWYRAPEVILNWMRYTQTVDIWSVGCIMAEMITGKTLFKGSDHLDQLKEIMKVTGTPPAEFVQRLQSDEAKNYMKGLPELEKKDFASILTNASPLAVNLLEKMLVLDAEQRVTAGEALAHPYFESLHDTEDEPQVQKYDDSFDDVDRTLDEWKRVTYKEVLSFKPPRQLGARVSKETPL
Kind of assay: Inhibition of human full length p38 gamma expressed in Escherichia coli cell assessed as substrate phosphorylation using fluorescence-labelled peptides as substrate at 95 uM after 90 mins by microfluidic peptide phosphorylation assay.

Assay [3] addresses T3, Serine/threonine-protein kinase Chk1 (Homo sapiens) (UniProt O14757).
T3 sequence (whole entry): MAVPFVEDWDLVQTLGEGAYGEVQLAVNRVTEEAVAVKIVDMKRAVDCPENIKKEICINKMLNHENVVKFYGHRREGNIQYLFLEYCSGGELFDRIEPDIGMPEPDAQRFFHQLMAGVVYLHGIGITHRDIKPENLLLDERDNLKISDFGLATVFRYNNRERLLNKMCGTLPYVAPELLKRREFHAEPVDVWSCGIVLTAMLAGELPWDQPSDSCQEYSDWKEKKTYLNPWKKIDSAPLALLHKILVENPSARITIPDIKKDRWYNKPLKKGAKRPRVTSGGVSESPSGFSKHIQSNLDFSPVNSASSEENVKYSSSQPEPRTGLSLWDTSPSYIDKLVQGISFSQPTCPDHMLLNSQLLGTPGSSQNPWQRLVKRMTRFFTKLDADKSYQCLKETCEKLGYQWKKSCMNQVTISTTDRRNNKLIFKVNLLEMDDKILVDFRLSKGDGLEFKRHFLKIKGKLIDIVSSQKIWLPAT
Kind of assay: Inhibition of human full length CHK1 expressed in baculovirus assessed as substrate phosphorylation using fluorescence-labelled peptides as substrate at 8 uM after 90 mins by microfluidic peptide phosphorylation assay.

In assay [4] the target is T4, Interleukin-1 receptor-associated kinase 4 (Homo sapiens) (UniProt Q9NWZ3).
T4 sequence (whole entry): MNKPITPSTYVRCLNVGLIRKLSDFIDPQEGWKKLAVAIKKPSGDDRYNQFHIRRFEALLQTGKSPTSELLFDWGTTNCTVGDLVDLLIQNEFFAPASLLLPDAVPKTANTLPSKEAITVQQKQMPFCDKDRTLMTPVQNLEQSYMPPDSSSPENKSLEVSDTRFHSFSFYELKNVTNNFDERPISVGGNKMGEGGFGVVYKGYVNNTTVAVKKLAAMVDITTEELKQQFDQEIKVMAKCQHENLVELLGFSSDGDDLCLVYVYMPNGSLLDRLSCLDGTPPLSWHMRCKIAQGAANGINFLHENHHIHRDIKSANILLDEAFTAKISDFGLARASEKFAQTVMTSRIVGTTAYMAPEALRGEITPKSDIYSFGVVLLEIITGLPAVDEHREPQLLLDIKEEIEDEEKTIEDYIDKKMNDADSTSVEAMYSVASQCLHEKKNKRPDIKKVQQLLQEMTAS
Kind of assay: Inhibition of human IRAK4 catalytic domain expressed in baculovirus assessed as substrate phosphorylation using fluorescence-labelled peptides as substrate at […] after 90 mins by microfluidic peptide phosphorylation assay.

The target of assay [5] is Glycogen synthase kinase-3 beta (Homo sapiens) (UniProt P49841). The experiment in a line: Inhibition of human full length GSK-3 beta expressed in baculovirus assessed as substrate phosphorylation using fluorescence-labelled peptides as substrate at […] after 90 mins by microfluidic peptide phosphorylation assay.
Sequence of Glycogen synthase kinase-3 beta (Homo sapiens) (P49841 whole entry, looked up): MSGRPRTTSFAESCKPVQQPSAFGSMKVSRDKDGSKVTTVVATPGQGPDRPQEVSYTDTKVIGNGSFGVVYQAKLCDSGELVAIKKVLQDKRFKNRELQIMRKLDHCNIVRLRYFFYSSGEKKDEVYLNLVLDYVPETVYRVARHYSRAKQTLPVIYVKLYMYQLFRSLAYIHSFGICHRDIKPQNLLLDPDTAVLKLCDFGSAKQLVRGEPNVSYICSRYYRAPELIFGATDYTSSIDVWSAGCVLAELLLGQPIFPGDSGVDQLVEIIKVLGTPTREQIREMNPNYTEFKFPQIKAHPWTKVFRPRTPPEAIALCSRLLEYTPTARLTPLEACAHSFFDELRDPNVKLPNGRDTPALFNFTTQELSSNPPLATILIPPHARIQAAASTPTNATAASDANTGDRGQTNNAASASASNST
The target in assay [6] is Proto-oncogene tyrosine-protein kinase Src (Homo sapiens) (UniProt P12931). The experiment in a line: Inhibition of human full length SRC expressed in baculovirus assessed as substrate phosphorylation using fluorescence-labelled peptides as substrate at 420 uM after 90 mins by microfluidic peptide phosphorylation assay.
Sequence of Proto-oncogene tyrosine-protein kinase Src (Homo sapiens) (P12931 2-536 limits assumed): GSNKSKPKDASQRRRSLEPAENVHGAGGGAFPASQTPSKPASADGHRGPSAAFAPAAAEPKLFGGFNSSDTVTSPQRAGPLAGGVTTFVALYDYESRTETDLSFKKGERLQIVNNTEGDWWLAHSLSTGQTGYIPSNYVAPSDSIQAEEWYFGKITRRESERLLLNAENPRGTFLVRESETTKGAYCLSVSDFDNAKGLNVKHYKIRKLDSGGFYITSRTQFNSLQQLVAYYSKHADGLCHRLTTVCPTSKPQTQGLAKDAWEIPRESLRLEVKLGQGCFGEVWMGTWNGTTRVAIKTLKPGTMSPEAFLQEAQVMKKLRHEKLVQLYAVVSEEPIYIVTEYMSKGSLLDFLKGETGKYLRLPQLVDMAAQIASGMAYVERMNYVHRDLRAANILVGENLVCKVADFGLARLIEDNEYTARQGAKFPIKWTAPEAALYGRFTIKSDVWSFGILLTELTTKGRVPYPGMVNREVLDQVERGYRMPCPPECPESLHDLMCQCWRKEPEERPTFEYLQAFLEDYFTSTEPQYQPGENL
Assay [7] concerns the target T5, Aurora kinase C (Homo sapiens) (UniProt Q9UQB9).
T5 sequence (whole entry): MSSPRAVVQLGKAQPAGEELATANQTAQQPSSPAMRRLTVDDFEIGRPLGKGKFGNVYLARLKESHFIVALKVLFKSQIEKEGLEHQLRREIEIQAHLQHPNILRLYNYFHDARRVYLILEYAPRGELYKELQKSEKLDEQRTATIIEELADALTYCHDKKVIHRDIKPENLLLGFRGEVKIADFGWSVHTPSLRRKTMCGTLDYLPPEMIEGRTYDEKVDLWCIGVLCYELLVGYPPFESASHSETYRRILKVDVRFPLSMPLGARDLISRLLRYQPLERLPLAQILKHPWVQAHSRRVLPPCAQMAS
Kind of assay: Inhibition of human full length AurC expressed in baculovirus assessed as substrate phosphorylation using fluorescence-labelled peptides as substrate at 1000 uM after 90 mins by microfluidic peptide phosphorylation assay.

As a reminder, the inhibition is the share of the control response that was lost under treatment. Turning to `Clc1ccc(C2(c3ccc(-c4ncnc5[nH]cnc45)cc3)CCNCC2)cc1`, in assay [1], the inhibition was 2%.
`NCCc1ccc(-c2ncnc3[nH]cnc23)cc1`: the inhibition in assay [2] came out at 13%.
Take `NCC1CCN(c2ncnc3[nH]ccc23)CC1`: in assay [3], the inhibition came out at 0%.
In the case of `COC(=O)c1cnc(Nc2cnc(C#N)cn2)cc1NCC1CCNCC1`, the inhibition came to 5.5% in assay [4] and 3.5% in assay [5].
For the compound `c1nc(N2CCOCC2)c2nc[nH]c2n1`, the inhibition in assay [6] stood at 62.5%.
Regarding `c1cnc2[nH]ccc2c1`, the inhibition in assay [7] came to 96%.

The record behind these values is ChEMBL document CHEMBL3132769, “Fragment growing to retain or alter the selectivity of anchored kinase hinge-binding fragments” (Medchemcomm, 2014).
